Entries after “also recorded” stand apart in the source; their conditions may differ.
Key:
GP130 [1] = target: T1, GP130 (Homo sapiens, UniProt P40189); conditions: reported by Saleh et al.; read-out: GP130 binding affinity KD; cited from earlier work
T1 sequence (P40189 23-918): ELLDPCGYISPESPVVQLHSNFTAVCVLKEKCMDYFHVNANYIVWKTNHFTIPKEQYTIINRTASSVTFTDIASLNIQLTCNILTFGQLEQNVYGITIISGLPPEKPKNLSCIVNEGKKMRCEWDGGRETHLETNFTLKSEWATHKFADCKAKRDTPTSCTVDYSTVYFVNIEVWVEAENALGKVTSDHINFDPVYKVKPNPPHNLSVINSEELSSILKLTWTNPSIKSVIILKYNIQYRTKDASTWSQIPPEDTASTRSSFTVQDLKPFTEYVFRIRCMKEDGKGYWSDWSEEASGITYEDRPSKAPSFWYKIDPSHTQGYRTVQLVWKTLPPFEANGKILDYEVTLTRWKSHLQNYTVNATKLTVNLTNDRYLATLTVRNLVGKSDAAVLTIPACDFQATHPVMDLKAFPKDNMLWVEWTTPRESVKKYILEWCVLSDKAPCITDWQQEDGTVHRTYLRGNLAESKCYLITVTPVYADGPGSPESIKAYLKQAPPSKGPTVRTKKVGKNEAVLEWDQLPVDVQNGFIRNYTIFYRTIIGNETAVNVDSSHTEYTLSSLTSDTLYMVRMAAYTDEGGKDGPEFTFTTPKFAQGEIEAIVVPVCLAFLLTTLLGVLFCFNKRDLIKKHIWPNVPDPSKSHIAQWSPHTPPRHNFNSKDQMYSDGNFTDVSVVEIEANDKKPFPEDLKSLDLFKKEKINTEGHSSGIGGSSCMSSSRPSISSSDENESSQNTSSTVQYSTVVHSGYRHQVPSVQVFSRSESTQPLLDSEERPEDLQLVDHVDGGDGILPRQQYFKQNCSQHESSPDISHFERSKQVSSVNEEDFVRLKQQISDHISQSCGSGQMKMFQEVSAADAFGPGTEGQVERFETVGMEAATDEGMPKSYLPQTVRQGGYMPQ

[2] = test system: IL-6-dependent STAT3 tyrosine phosphorylation in HepG2 cells; conditions: Saleh and coworkers; cited from earlier work
[3] = test system: IL-6-dependent murine hepatoma cell line MH60; conditions: Omura and coworkers; cited from earlier work
GP130 [4] = target: T1, GP130; assay: Literature binding of madindoline A to GP130; conditions: compared with the docking free energy
Text: Several synthetic approaches to the preparation of the natural product have been reported (ref. 22 and references therein), but due to the length and complexity of the syntheses cannot be applied economically in a pharmaceutical process. A structure-based approach to the synthesis of madindoline A analogues has not yet been reported.

[5] = test system: Stat3 phosphorylation (p-Tyr705) induced by IL-6 in LNCaP prostate cancer cells; assay: IL-6 induced Stat3 phosphorylation in LNCaP cells, Western blot; format: cell-based; conditions: IL-6 12.5 ng/ml 30 min, Western blot
Protocol: LNCaP prostate cancer cells were acquired from American Type Culture Collection. Cells were maintained in RPMI 1640 medium, 1× with 4.5 g/L L-glutamine, supplemented with 10% FBS, 100 U/ml penicillin and […] streptomycin (Invitrogen), in a humidified atmosphere of 5% CO2 at 37° C.
LNCaP prostate cancer cells were seeded in T75 flasks, grown to 50% confluence and serum-starved the following night. The cells were left untreated or were treated with MDL-A (100-400 μM), 1, 2 (5-40 μM) or DMSO in the absence of FBS. After 4 hours, the cells were stimulated with 12.5 ng/ml IL-6 (Cell Signaling Technology). The cells were then harvested at 30 minutes and washed with PBS and lysed in cold M-PER lysis buffer (Pierce) containing protease inhibitors (Sigma) and phosphatase inhibitors (Roche). Lysates were centrifuged at 14,000 rpm for 15 minutes at 4° C. and supernatants were collected and stored at −20° C. until further use.
Cell lysates were assayed for their protein concentrations using the Bradford protein assay reagent (Pierce), using BSA (Fisher Scientific) as the standard. Lysate samples were adjusted for the same protein concentration, approximately 5 μg of sample protein was loaded into each of the appropriate lanes. Protein samples were separated by SDS-PAGE and electrotransferred to PVDF membranes. The membranes were washed and blocked with 5% BSA in TBST (60 mM Tris-base, 120 mM NaCl, 0.1% Tween-20) for at least one hour and incubated with anti-phospho-STAT3 (p-Tyr705) antibody, anti-STAT3 antibody or anti-GAPDH antibody (all from Cell Signaling Technology) in 5% BSA in TBST overnight at 4° C. Blots were then washed three times in TBST and incubated with a horseradish peroxidase-conjugated goat anti-rabbit IgG secondary antibody (Cell Signaling Technology) in 5% BSA in TBST for 1 hour at room temperature. The bound antibody was detected using Enhanced Chemiluminescence detection reagents (Pierce) according to the manufacturer's instructions and chemiluminescence visualized using ECL Hyperfilm (Amersham).

- experimental binding free energy (GP130 [4]): -20.9 kJ/mol
Compound: CCCCC1=C(C)C(=O)[C@@](C)(CN2c3ccccc3[C@]3(O)CCO[C@H]23)C1=O [MDL-A, (+)-Madindoline A, reference compound]
- Kd (GP130 [1]): 288 µM
- IL-6-dependent STAT3 tyrosine phosphorylation [2]: inhibits IL-6-dependent STAT3 tyrosine phosphorylation
- growth of IL-6-dependent MH60 cells [3]: specifically inhibited the growth
- inhibition of Stat3 phosphorylation induced by IL6 [5]: inhibit Stat3 phosphorylation; also recorded: dose dependent inhibition
